In patent publication US10501453B2, “Benzothiazole or benzoxazole compounds as SUMO activators” (Icahn School of Medicine at Mount Sinai, priority 2012, dated 2019):
Converted amounts (≈) assume the structure as drawn. Where two headings read alike, the source gives them in different places.

How the values were obtained:
[1] = test system: HEK-293 cells; experiment: Toxicity (Table 2; cytotoxicity in the compound screen)
[2] = test system: SERCA2a; experiment: SERCA2a SUMOylation assay in HEK-293 cells (immunoprecipitation/immunoblotting); assay type: cell-based; settings: compared with DMSO control; 10 μM
Excerpt: (§1) The following antibodies were used for immunoblotting and immunoprecipitation (IP): polyclonal anti-SERCA2a (21th century Biochem Inc.), monoclonal anti-GAPDH (Sigma-Aldrich, catalog no. G8795), monoclonal anti-SUMO 1 (Cell Signaling Technology Inc., catalog no. 4930), anti-mouse horseradish peroxidase (HRP) (Pierce Biotechnology Inc., catalog no. 32430), and anti-rabbit HRP (Pierce Biotechnology Inc., catalog no. 32460). YFP-tagged SUMO1, pcDNA3.0-SERCA2a, and HA-tagged Ubc9 plasmids were used for the transfection. The plasmid DNA was amplified in the Escherichia coli strain DH5a and extracted by using a commercial purification kit (Qiagen, catalog no. 12263). Purified plasmid was resuspended in sterile TE buffer (10 mM Tris-HCl and 1 mM EDTA, pH 7.6). Only the preparation highest purity (A260/A280>1.8) was used for transfection. 1 μg of each plasmid was used for transfection. HEK-293 cells (American Type Culture Collection, catalog no. CRL-1873) were grown at 37° C. and under a 5% CO2 humidified atmosphere in Dulbecco's modified Eagle's medium (DMEM, Cellgro, catalog no. 10-0 13-CM) containing 10% fetal bovine serum (SAFC Bioscience, catalog no. 12107) and 100 i.u of penicillin/ml and 100 μg of streptomycin/ml. HEK-293 cells were seeded at a density of 3-5×10^5 cells per 60 mm culture dish in DMEM. The cells were transiently transfected using Lipofectamine 2000 (Invitrogen, catalog no. 11668) with indicated expression plasmids. After 24 hours, the cells were treated with either small molecules or dimethyl sulfoxide (DMSO, Sigma-Aldrich, catalog no. D2650).
(§2) Each compound was added at 10 μM. DMSO was used as a control. After 24 hours at 37° C., SERCA2a SUMOylation and functional analysis were determined.
Equal amounts of protein from either small molecule treated or DMSO treated cells or immunoprecipitates were resolved by 7.5% SDS-PAGE and transferred to nitrocellulose membranes (Bio-Rad, catalog no. 162-0112). The membranes were blocked for 1 hour at room temperature with 5% non-fat milk (Cell Signaling Technology Inc., catalog no. 9999) in TBST (10 mM Tris-HCl, 150 mM NaCl, and 0.05% tween-20, pH 8.0). The blots were incubated with specific primary antibodies at 4° C. for overnight. The blots were then washed five times for 10 minutes each with TBST and incubated for 1 hour with HRP-conjugated secondary antibodies in TBST with 5% non-fat milk. After five times TBST washes, the protein bands were visualized with enhanced chemiluminescence (Pierce Biotechnology Inc., catalog no. 32132) and exposed to x-ray film (Denville Scientific Inc., catalog no. E3012). GAPDH expression provided an internal control.
Post-transfection (48 hours), the HEK-293 cells were rinsed twice with phosphate-buffered saline (PBS, Cellgro, catalog no. 21-040-CM) and lysed in 1% Nonidet P-40 lysis buffer (Boston Bioproducts, catalog no. BP-119) with 10 mM N-ethylmaleimide (NEM, Sigma-Aldrich, catalog no. N3876) and […] inhibitor cocktail (Complete Mini Tablet, Roche Applied Science, catalog no. 11836153001). 2 mg of protein were mixed with the anti-SERCA2a antibodies for overnight at 4° C. in lysis buffer. Pre-washed protein A-Separose beads (Pierce Biotechnology Inc., catalog no. 20333) was added to each sample and incubated 1 hour at 4° C. with gentle rocking. Immunocomplexes were washed with lysis buffer three times and precipitated by centrifugation at 12000×g for 10 seconds. The immunocomplexes were resuspended in SDS sample buffer and subjected to immunoblotting. Controls for the immunoprecipitations were performed using an anti-rabbit IgG equal to that of the primary precipitating antibody. Ten percent of whole cell lysates used in the immunoprecipitation was loaded for subsequent immunoblotting.
The ability of the Example compound to SUMOylate SERCA2a was examined using an in vitro system in HEK 293 cells where both SERCA2a and SUMO 1 are expressed. […]

[3] = test system: YFP-SUMO1; experiment: YFP-SUMO1 accumulation (cell image) in HEK-293 cells expressing YFP-SUMO1 and pcDNA3.0-SERCA2a; assay type: cell-based; settings: increase vs. DMSO; for fold induction at 10 µM: Homo sapiens, HEK293, 24 hours
Excerpt: as §1, §2
Cellular permeability and potential activity of the compounds were examined by tracking of the YFP-SUMO1. HEK-293 cells expressing YFP-SUMOI and pcDNA3.0-SERCA2a were incubated with either 10 μM DMSO or 10 μM small molecules for 24 hours at 37° C. Fluorescent signals were monitored by fluorescence microscopy. HA-tagged Ubc9 expressing cells were served as a positive control.
The ability of the Example compound to SUMOylate SERCA2a was examined using an in vitro system in HEK 293 cells where both SERCA2a and SUMO 1 are expressed. The cellular permeability and potential activity of the Example compounds was examined by tracking of the YFP-SUM01. HEK-293 cells expressing YFP-SUM01 and pcDNA3.0-SERCA2a were treated with either 10 μM DMSO or 10 μM indicated Example 1 for 24 hrs. Fluorescent signals were monitored by fluorescence microscopy. HA-Ubc9 expressing cells were served as a positive control. The SERCA2a SUMOylation profiling was then analyzed by using the same cells (FIG. 1B, WCL, whole cell lysates; S-SERCA2a, SUMOylated SERCA2a).

[4] = Solubility (Table 2); settings: DMSO, organic solvent or mixture
[5] = test system: adult rat ventricular myocytes (ARVMs); experiment: Cell shortening/re-lengthening and calcium transient of ARVMs (IonOptix); assay type: cell-based; settings: compared to DMSO control; 10 μM
Procedure: Calcium-tolerant adult rat ventricular myocytes (ARVMs) were obtained from hearts of male Sprague-Dawley rats (250 to 300 g). The heart was excised and perfused with a standard enzymatic technique. ARVMs were plated on multi-chambered plates or culture dishes, pre-coated with laminin 2 μg/cm^2, at a density of 10^5 cells/cm^2 in DMEM without L-glutamine supplemented with 10 mmol/l HEPES, 3.7 mg/ml NaHCO3, 1 mg/ml glucose, 0.11 mg/ml sodium pyruvate, 2 mg/ml bovine serum albumin, 2 mmol/1 L-camitine, 5 mmol/1 creatine, 5 mmol/1 taurine, 1% penicillin-streptomycin, and 1% gentamycin. Following isolation, cells were allowed to settle for 1 hour. Cultures were incubated at 37° C., in an atmosphere of 5% CO2-95% air. Fresh medium was added gently as medium was being drawn off until the cultures had been thoroughly washed. Only quiescent, rod-shape cardiac myocytes were selected for IonOptix experiments.
as §2
Mechanical properties of ARVMs were assessed using an IonOptix MyoCam® system (IonOptix, Milton, Mass.). In brief, cells were placed in a Warner chamber mounted on the stage of an inverted microscope (Olympus, IX-70) and superfused (1 ml/min at 30° C.) with a buffer containing 131 mM NaCl, 4 mM KCl, 1 mM CaCh, 1 mM MgCh, 10 mM glucose, and 10 mM HEPES, pH 7.4. ARVMs were field stimulated with suprathreshold voltage and at a frequency of 0.5 Hz. […] SoftEdge software (IonOptix) was used to capture changes in cell length during shortening and re-lengthening.
ARVMs were placed in a chamber on an Olympus IX-70 inverted microscope and imaged through a Fluor 40× oil objective. ARVMs were exposed to light emitted by a 75 W lamp and passed through either a 360 or a 380 nm filter (bandwidths were ±15 nm), while being stimulated to contract at 0.5 Hz. Fluorescence emissions were detected between 480 and 520 nm by a photomultiplier tube after first illuminating cells at 360 nm for 0.5 s then at 380 nm for the duration of the recording protocol (333 Hz sampling rate). The 360 nm excitation scan was repeated at the end of the protocol and qualitative changes in intracellular Ca^2+ concentration ((Ca^2+]i) were inferred from the ratio of the fluorescence intensity at two wavelengths.
The effects of the Example compound was examined on isolated rat cardiomyocytes shortening and relaxation parameters. […] Effects of Example 1 on mechanical properties of the ARVMs were assessed using a video-based edge detection system (IonOptix). The time constant of the increase of force during the stretch decreased (tau), percentage of peak shortening (PS), maximal rate of relaxation and contraction were analyzed at 24 hrs postincubation of the compounds in culture media (N=10 ARVMs). The mechanical data were analyzed with student's t-test (FIG. 2A, P<0.05 compared to the DMSO treated cells). SERCA2a SUMOylation profiling was analyzed in a same set of ARVMs (FIG. 2B, WCL, whole cell lysates; S-SERCA2a, SUMOylated SERCA2a).

[6] = test system: HEK-293 cells

Fc1ccc(-c2nnc(Nc3nc4c(F)cccc4s3)o2)cc1 [Example 2, N-(4-fluorobenzo[d]thiazol-2-yl)-5-(4-fluorophenyl)-1,3,4-oxadiazol-2-amine]
Toxicity [1]: Non-toxic
SERCA2a SUMOylation [2]: Increased 1.34x compared with DMSO control
fold induction at 10 µM [3]: 2.93
solubility [4]: 10 mM (≈ 3300 µg/mL)
Cardiac Contraction: Peak shortening [5]: Peak shortening 2.2x compared to DMSO control

COc1cccc(-c2nnc(Nc3nc4c(F)cccc4s3)o2)c1 [Example 3, N-(4-fluorobenzo[d]thiazol-2-yl)-5-(3-methoxyphenyl)-1,3,4-oxadiazol-2-amine]
Toxicity [1]: Non-toxic
SERCA2a SUMOylation [2]: Increased 1.43x compared with DMSO control
fold induction at 10 µM [3]: 2.49
solubility [4]: 10 mM (≈ 3420 µg/mL)
Cardiac Contraction: Peak shortening [5]: Peak shortening 2.5x compared to DMSO control

COc1ccc(-c2nnc(Nc3nc4c(F)cccc4s3)o2)cc1 [Example 4, N-(4-fluorobenzo[d]thiazol-2-yl)-5-(4-methoxyphenyl)-1,3,4-oxadiazol-2-amine]
Toxicity [1]: Non-toxic
SERCA2a SUMOylation [2]: Increased 1.4x compared with DMSO control
fold induction at 10 µM [3]: 2.34
solubility [4]: 10 mM (≈ 3420 µg/mL)
Cardiac Contraction: Peak shortening [5]: Peak shortening 4.3x compared to DMSO control

N-(6-fluorobenzo[d]thiazol-2-yl)-5-(4-methoxyphenyl)-1,3,4-oxadiazol-2-amine [Example 14]
SERCA2a SUMOylation [2]: Not statistically significant
YFP accumulation ([3]; 10 μM, 24 hours): Active
Toxicity [6]: > 50%
